The structures appear in SMILES notation.

Series [1] deals with HT29 colon tumor. In words: sc HT29 colon tumor in athymic mice (Table 2). The series is classed as in vivo, human tumor in athymic mice (Ncr-nu). Conditions: for T-C / Tumor-Free Survival/Total: days 14-18. As to the method: (§1) This Example illustrates the efficacy of penclomedine and 4-demethylpenclomedine in the treatment of cancer. MX-1 mammary tumor xenograft was subcutaneously implanted into mice, and the mice were exposed to the compounds. The testing of the mice was performed following a published procedure. See, e.g., Plowman et al., supra; Geran et al., Cancer Chemother. Rep., Part 2, 1-55 (1972); Developmental Therapeutics Program, Division of Cancer Treatment, NCI, in In Vivo Models 1976-1982, NIH Publication No. 84-2635, Washington D.C., U.S. Govt. Printing Office (1984).
(§2) This Example further illustrates the efficacy of penclomedine and 4-demethylpenclomedine in the treatment of cancer. The compounds were tested in vivo on mice by the procedure set forth in Example 2. The results obtained are set forth in Table 2 and confirm that 4-demethyl-penclomedine is active against cancer, particularly mammary, colon, and renal cancer.
(§3) ^a Athymic mice (Ncr-nu) were implanted either intracranially (ic) with
(§4) […] MX-1 mammary tumor cells or subcutaneously (sc) with fragments of
(§5) human tumors (CAKI-, renal; HT29, colon; MX-1, mammary).
(§6) ^b The difference in the median of time poststaging for tumors to
(§7) double in mass: T (treated mice), C (control mice)

For series [2], the system named is mammals, especially humans. In words: Neurotoxicity of penclomedine versus 4-demethylpenclomedine. It is filed as in vivo, human. To be noted: for neurotoxicity versus metabolite levels: administration of penclomedine to patients. As to the method:
It has been observed that 4-demethylpenclomedine was present in clinical samples and continued to be present in the plasma for longer than 24 hours.

The nature of series [3]: Distribution of penclomedine and its metabolites in mouse tissues. It is filed as in vivo, CD2F1 mice. Conditions: for level in liver: mouse liver versus other tissues. The procedure:
CD2F1 Mice were obtained from Harlan Sprague-Dawley (Frederick, Md.). During the course of this study, mice were housed in polyethylene shoe box cages without bedding and given access to food and water. Four mice were used per time point.
^14 C-Penclomedine (specific activity 17.6 and 18.9 mCi/mM, labeled at CCl3) was obtained from Research Triangle Institute (Research Triangle Park, N.C.) and stored at -20° C. The site of radiolabel has been conserved in all penclomedine metabolites identified to date. The composition of the radioactive material was determined to be 99% ^14 C-penclomedine, by HPLC coupled with radiochemical detection.
^14 C-penclomedine (1 mCi/ml in ethanol) was added to the clinical penclomedine emulsion to give an activity of […] (4% ethanol final concentration). The mice were administered the above penclomedine formulation at 40 mg/kg (120 mg/m^2, […]) either intravenously via tail vein or orally via gavage. At 1, 2, 4, and 22 hours after intravenous administration and 2,4, 6, and 22 hours after oral administration, animals were euthanized with carbon dioxide and blood tissues were collected. Blood tissues from each time point were pooled. Blood was centrifuged and plasma and red cells were separated; tissues were homogenized in 3 volumes of 100 mM ammonium formate buffer pH 6.5. Urinary output was estimated by washing the cages with water after removing food and feces and concentrating these cage washings.
A 1 ml aliquot of tissue homogenate or a […] was acidified with 200 ml of 0.7 M ammonium phosphate pH 2.7, then 3 ml of ethyl acetate was added. This mixture was vortexed, centrifuged and the organic layer was collected. Fifty microliters of DMSO were added, and the ethyl acetate was concentrated to approximately […] with a stream of dry nitrogen. Fifty microliters of acetonitrile were added to this residue, and the resulting solution was analyzed by HPLC. Human plasma was processed identically to mouse plasma with the exception that 500 ml of plasma was extracted. Concentrated cage washings were analyzed by HPLC without further processing.
Plasma and tissue protein binding data were measured on the residue of the above extractions. The aqueous phase was washed with 5 ml of ethanol, centrifuged, and the ethanol insoluble precipitate was washed again with 5 ml ethanol. After centrifugation the pellet was resuspended in 0.5 ml 6 M guanidinium chloride, added to 10 ml 3a70B scintillation cocktail (Research Products International Corp., Mount Prospect, Ill.), and counted for ^14 C.
HPLC Assays: The HPLC system consisted of a Hewlett-Packard Series II 1090 liquid chromatograph with diode array detector (Hewlett-Packard, Palo Alto, Calif.). The column used was an Alltech Adsorbosphere HS C18 5 m 250×4.6 mm column (Alltech Associates, Deerfield, Ill.). The system used a gradient elution consisting of 100% 10 mM ammonium phosphate buffer pH 2.7 progressing to 100% acetonitrile over 25 minutes at 1 ml/min. Detection was performed by means of ultraviolet absorbance at 240 nm as well as by means of radioactivity using a Radiomatic Flo-One/Beta A140 radioactive flow detector (Packard Instrument Co., Downers Grove, Ill.) equipped with a […] and Flo-Scint VI scintillation cocktail at a 2:1 ratio.
^14 C-Penclomedine derived radioactivity was determined in mouse urine samples collected at 1, 2, 4, and 22 hours following intravenous and oral administration of^14 C-penclomedine. […] There were considerable differences in metabolite distribution among the different tissues. […] Most compounds present in the 2 hour samples were detectable in the 22 hour samples at levels from 10% to 50% of those seen at 2 hours.

For series [4], the system named is CAKI-1 renal tumor. In words: sc CAKI-1 renal tumor in athymic mice (Table 2). The series is classed as in vivo, human tumor in athymic mice (Ncr-nu). Conditions: for T-C / Tumor-Free Survival/Total: days 19-23. As to the method:
as §1, §2, §3, §4, §5, §6, §7

In the case of `COc1nc(C(Cl)(Cl)Cl)c(Cl)c(O)c1Cl` [4-Demethylpenclomedine, 3,5-dichloro-2-methoxy-4-hydroxy-6-(trichloromethyl)-pyridine], the T-C in series [1] (90 mg/kg/dose IP) is listed as 6.0 days; in series [4] (90 mg/kg/dose IP), 14.5 days. The “Tumor-Free Survival/Total” value in series [1] (90 mg/kg/dose IP) and in series [4] (90 mg/kg/dose IP) was 0/5 throughout. Also, in series [1] (Table 2), the “activity against colon tumors (T-C)” value was “active against MX-1, colon, and renal tumors”. In addition, the “neurotoxicity versus metabolite levels” value in series [2] is “the levels of this metabolite increased as toxicity due to penclomedine resolved”. Moreover, the “accumulation in fatty tissues compared with penclomedine” value in series [3] (mouse) is reported as “does not accumulate in fatty tissues as much as penclomedine”. The level in liver entry in series [3] (14C-penclomedine dosed) is on record as “liver contained the highest levels of demethylpenclomedine”. For the same molecule, in series [4] (Table 2), the “activity against renal tumors (T-C)” value was “active against MX-1, colon, and renal tumors”.
For `COc1nc(C(Cl)(Cl)Cl)c(Cl)c(OC)c1Cl` [Penclomedine, 3,5-dichloro-2,4-dimethoxy-6-(trichloromethyl)pyridine], the T-C stood at 1.5 days in series [1] (135 mg/kg/dose IP) and 15.3 days in series [4] (135 mg/kg/dose IP). The “Tumor-Free Survival/Total” value in series [1] (135 mg/kg/dose IP) and in series [4] (135 mg/kg/dose IP) was 0/5 each time. Also, in series [2], the “neurotoxicity versus metabolite levels” value was “neurotoxicity did not increase while levels of this metabolite increased to several times the plasma levels of the parent drug”. Also, in series [2] (in vivo), the “neurotoxicity to mammals, especially humans” value is “neurotoxic to mammals, especially to humans”. Besides, the “Tissue Concentration” value in series [3] (brain, 2 hours, i.v. 14C-penclomedine 40 mg/kg) was found to be 1.30 nmoles/gram wet tissue; in series [3] (brain, 2 hours, p.o. 14C-penclomedine 40 mg/kg) it was 2.16 nmoles/gram wet tissue; in series [3] (carcass, 2 hours, i.v. 14C-penclomedine 40 mg/kg), 14.8 nmoles/gram wet tissue; in series [3] (carcass, 2 hours, p.o. 14C-penclomedine 40 mg/kg), 55.2 nmoles/gram wet tissue; in series [3] (carcass, 22 hours, i.v. 14C-penclomedine 40 mg/kg) it was 5.15 nmoles/gram wet tissue; in series [3] (carcass, 22 hours, p.o. 14C-penclomedine 40 mg/kg), 2.16 nmoles/gram wet tissue. The “Tissue Concentration” value in series [3] (fat, 2 hours, i.v. 14C-penclomedine 40 mg/kg) stood at 15.8 nmoles/gram wet tissue; in series [3] (fat, 2 hours, p.o. 14C-penclomedine 40 mg/kg), 18.55 nmoles/gram wet tissue; in series [3] (fat, 22 hours, i.v. 14C-penclomedine 40 mg/kg), 8.90 nmoles/gram wet tissue; in series [3] (kidney, 2 hours, i.v. 14C-penclomedine 40 mg/kg), 6.45 nmoles/gram wet tissue; in series [3] (kidney, 2 hours, p.o. 14C-penclomedine 40 mg/kg), 7.30 nmoles/gram wet tissue; in series [3] (kidney, 22 hours, i.v. 14C-penclomedine 40 mg/kg) it was 1.21 nmoles/gram wet tissue. The “Tissue Concentration” value in series [3] (kidney, 22 hours, p.o. 14C-penclomedine 40 mg/kg) came out at 0.85 nmoles/gram wet tissue; in series [3] (liver, 2 hours, i.v. 14C-penclomedine 40 mg/kg) it was 0.69 nmoles/gram wet tissue; in series [3] (liver, 2 hours, p.o. 14C-penclomedine 40 mg/kg), 1.35 nmoles/gram wet tissue; in series [3] (liver, 22 hours, p.o. 14C-penclomedine 40 mg/kg), 0.38 nmoles/gram wet tissue. Also, in series [3] (14C-penclomedine dosed), the level in liver entry is listed as “the lowest levels of penclomedine”. The “tissues with highest levels” value in series [3] (mouse, 14C-penclomedine dosed) is “Highest levels of penclomedine were detected in the fat and carcass”. In addition, the “detectability in 2 hour tissue samples” value in series [3] (mouse, 2 hours) is “All 2 hour tissue samples contained detectable amounts of penclomedine”.

These data come from patent publication US6235761A, “Compound, composition and method for treating cancer” (priority 1999, dated 2001).
